This note sets out measurements from publication PMC13053910, “Covalent Protein Inhibitors via Tyrosine and Tryptophan Conjugation with Cyclic Imine Mannich Electrophiles” (Angewandte Chemie (International Ed. in English), 2026).

Data set [1] is described as follows: Reaction of cyclic imine Mannich or sulfur fluoride electrophiles with Ac-Tyr-NHMe (HPLC, LC/MS). The format is physicochemical. The protocol: To identify an appropriate warhead, we synthesized or purchased a collection of cyclic imines and incubated them with N‐acetyl‐L‐tyrosine methylamide (Ac‐Tyr‐NHMe) in PBS pH 7 at 37 °C (Table 1). The reactivity was quantified by UV integration on HPLC with LC/MS confirmation of product identity (Figure S1). […] The hydrolysis kinetics of imine 2 were characterized at pD 6 and 7.5 by NMR (Figure S3). […] The Mannich reaction mechanism involves a charged iminium intermediate, and the reaction is frequently catalyzed by Bronsted acids.^[ [36], [37] ^]
Figure 2 Second‐order rate constants for select cyclic imines and a sulfonyl fluoride with aromatic nucleophiles. Reactions were conducted under pseudo‐first‐order conditions with an excess of one reactant, as indicated. The reduction in the concentration of the limiting reactant was measured at various time points by HPLC analysis.
Figure S2: Second order rate constant determination. Reaction of (A) imine 1 (5 mM) with N-Ac-Tyr-NHMe (100 mM) at 37 °C or (B) at R.T. (C) imine 2 (5 mM) with N-Ac-Tyr-NHMe (100 mM) at 37 °C (D) imine 1 (5 mM) with indole-3-butyrate (100 mM) at 37 °C (E) imine 1 (10 mM) with 1 mM 1H-pyrrole-1-propionate (F) iminium 5 (5 mM) with N-Ac-Tyr-NHMe (100 mM) at 37 °C (G) imine 4 (5 mM) with N-Ac-Tyr-NHMe (100 mM) at 37 °C. (H) imine 11 (5 mM) with N-Ac-Tyr-NHMe (100 mM) at 37 °C. (I) imine 13 (5 mM) with N-Ac-Tyr-NHMe (100 mM) at 37 °C.
5.1 General procedure for determination of second order rate constants N-acetyl-l-tyrosine methyl amide (Ac-Tyr-NHMe) (100 mM) was incubated with 5 mM imine 1 in PBS (pH 7) at 37 °C or R.T..

Data set [2] is described as follows: Stability of warheads and inhibitors (solid, PBS, hydrolysis). The format is physicochemical. The following applies: 24 h in aqueous buffer, then sodium cyanoborohydride, mass spectrometry. As to the method: (§1) To be suitable for chemical probe and therapeutic applications, the warhead should show good stability. In general, we found the iminolactam warheads to be quite stable. Compound 1 was stable as a solid at room temperature for over 3 months. […] After 24‐h in aqueous buffer, compounds were treated with sodium cyanoborohydride. […] The synthetic strategy of in situ formation of imines by periodate treatment was pursued to avoid concerns of warhead reactivity with the ligand itself to either the peptide backbone or the phenoxyphenyl aryl group. This appears to have been unnecessary, at least for the iminolactam warhead. […] The more reactive ester imine may be forming semi‐stable cyclized products with the amide backbone, which have been observed previously with peptide aldehydes.^[ [51], [52] ^] Due to these issues, we selected compound P1b for further characterization.

Data set [3] can be described thus: Stability in bovine serum-containing cell media (LC/MS). The conditions noted are these: 20 µM, DMEM with 15% FBS, 24 h, 37 °C. The format is in vitro ADME. As to the method: as §1
Figure S17. Stability of cyclic imine inhibitors to serum-containing cell culture media. […] The protein fraction was then precipitated with addition of 2 volumes of 1:1 EtOH:acetonitrile and overnight incubation at -20 °C. Samples were centrifuged 16,000 g for 30 minutes. Supernatants were filtered through a 0.5 micro spin filter and evaporated with a speed vacuum. The compounds were resuspended in PBS and analzyed by LC/MS. […] Overlaid spectra of UV at 215 nm are shown and are representative of 3 replicates.

The next data set deals with T1, eDHFR L28Y (Escherichia coli, UniProt P0ABQ4, L28Y).
T1 construct: made in house; host or cells: E. coli (BL21 CodonPlus RIL or Rosetta 2), pET-28b(+)
Description: Covalent labeling of eDHFR L28Y by LC/MS. The format is binding, E. coli. The source says: (§2) Similarly, we prepared eDHFR tyrosine and tryptophan mutants at position 28 to assess labeling with TMP‐Im (Figure 3b). […] We conducted trypsin digestion of the labeled L28Y protein and localized the modification to the intended tyrosine by MS/MS fragmentation (Figure S9A). To assess selectivity over thiols, we tested labeling of the cysteine mutant. […] This labeling was reversed with GSH treatment, which is consistent with the reversibility of thioaminal formation (Figure S10).
(§3) Reactions with thiol mutant L28C were conducted in the presence of 5 mM glutathione and 5 mM TCEP. The observed mass differences of labeled and unlabeled proteins agree with the expected mass change of 428 Da.
Figure S10. Ligand directed labeling in the presence of thiols. […] B) TMP-Im (10 µM) was incubated with eDHFR L28C (10 µM) overnight in the absence (left and center) or presence of 5 mM GSH with 5 mM TCEP. For the center panel, after the labeling reaction, GSH (5 mM) was added and allowed to incubated overnight.

In a further data set the target is T2, eDHFR wt (Escherichia coli, UniProt P0ABQ4).
T2 construct: made in house; host or cells: E. coli (BL21 CodonPlus RIL or Rosetta 2), pET-28b(+)
Description: Covalent labeling of eDHFR wild type by LC/MS. The format is binding, E. coli. The conditions noted are these: 10 µM protein, 10 µM compound, overnight, 37 °C.

A further data set addresses T3, eDHFR L28W (Escherichia coli, UniProt P0ABQ4, L28W).
T3 construct: made in house; host or cells: E. coli (BL21 CodonPlus RIL or Rosetta 2), pET-28b(+)
As to the kind of experiment: Covalent labeling of eDHFR L28W by LC/MS. The format is binding, E. coli. The conditions noted are these: 10 µM protein, 10 µM compound, overnight, 37 °C.
Description: as §2, §3

Another data set has as its target T4, eDHFR L28C (Escherichia coli, UniProt P0ABQ4, L28C).
T4 construct: made in house; host or cells: E. coli (BL21 CodonPlus RIL or Rosetta 2), pET-28b(+)
Description: Covalent labeling of eDHFR L28C by LC/MS. The format is binding, E. coli.
Description: as §2, §3
Figure S10. Ligand directed labeling in the presence of thiols. A) TMP-Im (10 µM) was incubated with eDHFR L28Y (10 µM) overnight at RT in the absence (left) or presence of 5 mM GSH with 5 mM TCEP. B) TMP-Im (10 µM) was incubated with eDHFR L28C (10 µM) overnight in the absence (left and center) or presence of 5 mM GSH with 5 mM TCEP. For the center panel, after the labeling reaction, GSH (5 mM) was added and allowed to incubated overnight.

Setting [4] is: electrophile 5 mM, N‐acetyl‐l‐tyrosine methyl amide 100 mM, PBS pH 7, 37 °C.

Turning to `O=S1(=O)N=Cc2ccccc21` [compound 11], in data set [1] (setting [4]), the “reactivity (t1/2)” value came to 2.4 ± 0.1 h.

In the case of `O=C1C=N[C@H]2CCCC[C@@H]2O1` [compound 2], the “reactivity (t1/2)” value in data set [1] (electrophile 5 mM, Ac-Tyr-NHMe 100 mM, PBS pH 7, 37 °C, competing hydrolysis) is on record as “∼40 mins ^b)”.

Take `COc1cc(Cc2cnc(N)nc2N)cc(OC)c1OCCCCN1CCN=CC1=O` [TMP‐Im]: the “stability to long‐term incubation in PBS” value in data set [2] is reported as “stability over the 24 h”. Further, the “stability in bovine serum‐containing cell media” value was “minimal loss of compounds to the precipitated protein fraction or degradation” in data set [3] and “no degradation or loss to the protein fraction” in data set [3] (listed as TMP-Im). Also, on eDHFR L28Y (10 µM protein, 10 µM compound, overnight, 37 °C), the “covalent labeling of eDHFR L28Y” value is “covalent labeling”. The “effect of GSH on labeling of eDHFR L28Y” value at eDHFR L28Y (presence of 5 mM GSH) is recorded as “only a slight reduction in reaction conversion”. Moreover, on eDHFR wt, the “covalent labeling of eDHFR wild type” value is reported as “no labeling”. Also, on eDHFR L28W, the “covalent labeling of eDHFR L28W” value is reported as “covalent labeling”. Further, the “labeling of eDHFR L28C cysteine mutant” value at eDHFR L28C (absence of additional thiols, TCEP as reductant) is on record as “A small amount of labeling”; at eDHFR L28C (in the presence of 5 mM glutathione (GSH) and 5 mM TCEP), “no detectable labeled protein”.

On to `O=C(O)c1ccc(OS(=O)(=O)F)cc1` [compound 14, reference compound], for which the “reactivity (t1/2)” value in data set [1] (setting [4]) is on record as “∼48 h”.

Regarding 2-hydroxyquinoxaline [compound 4], the “reactivity (t1/2)” value in data set [1] (buffer, pH 7) is recorded as 6.1 ± 0.2 h.
